≈ marks a conversion by molar mass, not a printed value. Residues, ends and D or L forms follow the SMILES beside them.
Assays:
S. mutans = experiment: Time-kill assay; assay type: cell-based, Streptococcus mutans; details: 0.12%, 10^6 CFU/mL, CFU counts
Protocol: The time-kill kinetics of HBAMP against S. mutans was determined by time-kill assay as previously described. S. mutans was grown to exponential phase and diluted to 10^6 CFU/mL in growth medium. […] Bacterial suspension in other tubes that were added with 0.12% CHX and PBS served as the positive and blank control groups, respectively. At time points of 0, 10, 20, 30, 40, 60, and 90 min, 10 μL of cell suspension was collected, serially diluted in PBS and then 50 μL of aliquots were plated onto BHI agar plates. Colony forming units were counted after the plates were incubated anaerobically at 37 °C for 24 h.

S. mutans biofilm = assay type: cell-based; details: 250 μg/ml (2× MIC), 10 min treatment of 12 h biofilm on HAp
Protocol: S. mutans biofilms were grown on the surface of HAp disks that were placed in 24-well plate. Each well of the plate was inoculated with 2 ml of S. mutans in BHIS (10^6 CFU/mL). After incubation anaerobically at 37 °C for 12 h, the HAp disks were washed twice with sterile deionized water and then respectively treated with HBAMP (2× and 4× MIC) and CHX (0.12%) for 10 min. Then biofilms were stained for 20 min in the dark using the LIVE/DEAD® BacLight^TM Bacterial Viability Kit. The biofilm without treatment served as control. Stained biofilms were photographed by CLSM with a 20× objective. Three independent biofilm experiments were performed.

in vitro = in vitro ADME; details: both sexes, human, cerebrospinal or other body fluid
Protocol: The protocols in this section were approved by the Ethics Committee of Zhongshan Hospital, Xiamen University. The methods employed were performed in accordance with the approved guidelines. After acquiring informed consent, human saliva was collected from individual volunteers (two males and two females; Minimum age: 22; maximum age: 28) in the morning prior to oral cleaning. The collected saliva samples were centrifuged at 12,000 rpm for 20 min. The supernatant was collected and filtered through the […] membrane filter to remove any debris. HBAMP was added into the human saliva to achieve the final concentration of 500 μg/ml. The saliva with HBAMP was incubated at 37 °C. At 0, 5, 20 and 60 min, 1 ml samples were taken from the total sample and served in the specific sample bottles, the machine will automatically extract samples from the bottles to detect. The samples were analysed by reversed-phase HPLC using Zorbax Eclipse XDB-C18 analytical column (150 × 4.6 mm, Agilent Technologies, Inc., Santa Clara, CA, USA) protected by a XDB-C18 guard column (4 × 4 mm). For the elution of HBAMP, a flow rate of 1.2 mL/min and a linear gradient from 88:12 to 65:35 (0.1% TFA in water: 0.1% TFA in acetonitrile) for 10 min were employed. Total run time of HPLC-UV (215 nm) analysis was 15 min and the injection volume was set at 40 μL.

[1] = test system: Lactobacillus acidophilus (ATCC 4356); assay type: cell-based; details: ATCC 4356, 24 h
Protocol: (§1) Streptococcus sanguinis (ATCC 10556), Actinomyces viscosus (ATCC 19246), Streptococcus mutans (ATCC 25175), were grown in Brain Heart Infusion (BHI; Difco, Detroit, MI, USA) culture medium. Lactobacillus acidophilus (ATCC 4356) was grown in de Man, Rogosa and Sharpe (MRS; Difco, Detroit, MI, USA) culture medium. BHIS (BHI with 2% sucrose) was used for growing S. mutans biofilm. All cultures were grown anaerobically (80% N2, 10% H2 and 10% CO2) at 37 °C. According to the growth curve of bacteria, the exponentially growing cells were harvested by centrifugation and diluted in BHI or MRS to 10^6 CFU/mL based on a regression line derived from McFarland turbidity standards (Pro-Lab Diagnostics, Richmond Hill, ON, Canada).
(§2) MIC and MBC assays were conducted according to the consensus guidelines developed by the Clinical and Laboratory Standards Institute (CLSI)[24]. Two-fold serial dilutions of peptides were prepared in culture medium at a volume of 200 μl/well in 96-well plates and the final concentrations of peptides ranged from 31.25 μg/ml to 2000 μg/ml. Chlorhexidine (0.12%) and culture medium were included as the positive and control group, respectively. Then each well was seeded with 20 μL of bacterial cell suspension (10^6 CFU/mL). The plates were incubated anaerobically at 37 °C for 24 h. The MIC was defined as the lowest concentration of peptide that prevents visible growth of the bacteria tested. […] The MBC was defined as the lowest concentration of peptide resulting in no colony formation on agar plates. All determinations were made from triplicate experiments.

[2] = test system: Streptococcus sanguinis (ATCC 10556); assay type: cell-based; details: ATCC 10556, 24 h
Protocol: as §1, §2

[3] = test system: Actinomyces viscosus (ATCC 19246); assay type: cell-based; details: ATCC 19246, 24 h
Protocol: as §1, §2

[4] = test system: Streptococcus mutans (ATCC 25175); assay type: cell-based; details: ATCC 25175, 24 h
Protocol: as §1, §2

Row | SMILES | time to kill S. mutans (S. mutans) [min] | bacteria killed in S. mutans biofilm (S. mutans biofilm) | remaining at 1 h, 500 μg/ml (in vitro) [%] | MBC, L. acidophilus [1] [µg/mL] | MIC, L. acidophilus [1] [µg/mL] | MBC, S. sanguinis [2] [µg/mL] | MIC, S. sanguinis [2] [µg/mL] | MBC, A. viscosus [3] [µg/mL] | MIC, A. viscosus [3] [µg/mL] | MBC, S. mutans [4] [µg/mL] | MIC, S. mutans [4] [µg/mL]
1 | [H]/N=C(\N/C(=N/[H])NCCCCCCNC(=N)NC(=N)Nc1ccc(Cl)cc1)Nc1ccc(Cl)cc1 [CHX, chlorhexidine] | ≤ 10 | – | – | – | – | – | – | – | – | – | –
2 | CC(C)C[C@H](NC(=O)[C@H](Cc1ccc(O)cc1)NC(=O)[C@H](Cc1c[nH]cn1)NC(=O)[C@H](CC(N)=O)NC(=O)[C@@H](N)CC(N)=O)C(=O)N1CCC[C@H]1C(=O)N[C@@H](CCCNC(=N)N)C(=O)NCC(=O)NCC(=O)NCC(=O)N[C@@H](CCCCN)C(=O)N[C@@H](CCCCN)C(=O)N[C@H](C(=O)N[C@H](C(=O)N[C@@H](Cc1ccccc1)C(=O)N[C@@H](Cc1c[nH]c2ccccc12)C(=O)N[C@H](C(=O)N[C@@H](CCCCN)C(=O)N[C@@H](Cc1ccccc1)C(=O)N[C@@H](CCCCN)C(=O)O)C(C)C)C(C)C)C(C)C [HBAMP] (H-NNHYLPRGGGKKVVFWVKFK-OH) | – | approximately 44.7% | 80.5 | 250 (≈ 105 µM) | 125 (≈ 52.6 µM) | 2000 (≈ 842 µM) | 500 (≈ 211 µM) | 500 (≈ 211 µM) | 250 (≈ 105 µM) | 250 (≈ 105 µM) | 125 (≈ 52.6 µM)
3 | CC(C)[C@H](NC(=O)[C@H](Cc1c[nH]c2ccccc12)NC(=O)[C@H](Cc1ccccc1)NC(=O)[C@@H](NC(=O)[C@@H](NC(=O)[C@H](CCCCN)NC(=O)[C@@H](N)CCCCN)C(C)C)C(C)C)C(=O)N[C@@H](CCCCN)C(=O)N[C@@H](Cc1ccccc1)C(=O)N[C@@H](CCCCN)C(=O)O [KSLW, reference compound] (H-KKVVFWVKFK-OH) | – | – | – | 125 (≈ 95.5 µM) | 62.5 (≈ 47.8 µM) | 2000 (≈ 1530 µM) | 250 (≈ 191 µM) | 500 (≈ 382 µM) | 125 (≈ 95.5 µM) | 125 (≈ 95.5 µM) | 62.5 (≈ 47.8 µM)

Source: PMC5133556, “Design of a hydroxyapatite-binding antimicrobial peptide with improved retention and antibacterial efficacy for oral pathogen control” (Scientific Reports, 2016)
